The record followed here is patent US9533986B2, “Bicyclic dihydropyridone kinase inhibitors” (PORTOLA PHARMACEUTICALS, INC., priority 2012, dated 2017).

SMILES strings stand for the structures.

The assay has as its target T1, full length active recombinant SYK enzyme (Homo sapiens, UniProt P43405).
T1 construct: full length active recombinant SYK enzyme (Millipore, Calif.); purchased Millipore
In words: Inhibition of Syk tyrosine phosphorylation activity (LANCE TR-FRET kinase assay). The format is biochemical. To be noted: 1 nM active SYK enzyme, 550 nM SYK-substrate, 100 μM ATP, 1 hour at room temperature. The procedure:
The in vitro and in vivo human JAK/Syk activities of the inventive compounds can be determined by various procedures known in the art, such as a test for their ability to inhibit the activity of human plasma JAK/Syk. […] The IC50 value is the concentration of the compound required to provide 50% inhibition of human JAK/Syk proteolytic activity.
An in vitro assay for detecting and measuring inhibition activity against Syk is as follows.
SYK tyrosine phosphorylation activity is measured using the LANCE™ Technology developed by Perkin Elmer Life and Analytical Sciences (Boston, Mass.). LANCE™ refers to homogeneous time resolved fluorometry applications using techniques such as time-resolved fluorescence resonance energy transfer assay (TR-FRET) (see generally for procedures in Perkin Elmer Application Note—How to Optimize a Tyrosine Kinase Assay Using Time Resolved Fluorescence-Based LANCE Detection, wwww.perkinelmer.com/lifesciences). The assay principle involves detection of a phosphorylated substrate using energy transfer from a phosphospecific europium-labeled antibody to streptavidin-allophycocyanin as an acceptor.
Molecules are reconstituted in 30% DMSO and serially diluted 1:3 with the final dilution containing DMSO in the absence of the candidate molecule. The final DMSO concentration in the assay is 3%. Kinase assays are performed as a two part reaction. The first reaction is a kinase reaction which comprises a candidate molecule, full length active recombinant SYK enzyme (Millipore, Calif.), and biotin-DEEDYESP-OH, a biotin-labeled SYK-specific substrate. The second reaction involves termination of the kinase reaction and the simultaneous addition of the detection reagents—europium-labeled anti-phosphotyrosine reagent (Eu-W1024-PY100, Perkin Elmer, Boston, Mass.) and Streptavidin-Allophycocyanin detection reagent (SA-APC, Prozyme, CA). The kinase reaction is performed in a black U-bottom 96-well microtitre plate. The final reaction volume is 50 μL and contains a final concentration of 1 nM active SYK enzyme, 550 nM SYK-substrate, and 100 μM ATP diluted in a buffer containing 50 mM Tris pH 7.5, 5 mM MgCl2, and 1 mM DTT. The reaction is allowed to proceed for 1 hour at room temperature. The quench buffer contains 100 mM Tris pH 7.5, 300 mM NaCl2, 20 mM EDTA, 0.02% Brij35, and 0.5% BSA. […] Detection of the phosphorylated substrate in the absence and presence of inhibitors is measured in the TR-FRET instrument, Analyst HT (Molecular Probes, Sunnyvale, Calif.) and the condition for measurements are set using CriterionHost Release 2.0 (Molecular Probes, Sunnyvale, Calif.). […] Inhibition of SYK-tyrosine kinase activity is calculated as the maximum response observed in the presence of inhibitor, compared to that in the absence of inhibitor. […]
(TR-FRET usually uses a lanthanide donor and a delayed reading to cut background.)

On to `N[C@H]1CCCC[C@H]1Nc1nc2c(c(Nc3cccc(-c4ncccn4)c3)n1)C(=O)NCC2` [Example 4, 2-(((1R,2S)-2-aminocyclohexyl)amino)-4-((3-(pyrimidin-2-yl)phenyl)amino)-7,8-dihydropyrido[4,3-d]pyrimidin-5(6H)-one], for which the IC50 (in general, the concentration that inhibits the measured activity by half) is no more than 250 nM.

On to `COc1ccc(Nc2nc(N[C@@H]3CCCC[C@@H]3N)nc3c2C(=O)NCC3)cc1C(F)(F)F` [Example 7, 2-(((1R,2S)-2-aminocyclohexyl)amino)-4-((4-methoxy-3-(trifluoromethyl)phenyl)amino)-7,8-dihydropyrido[4,3-d]pyrimidin-5(6H)-one], for which the IC50 is greater than 250 nM.

As to `Cc1cccc(Nc2nc(N[C@@H]3CCCC[C@@H]3N)nc3c2C(=O)NCC3)c1` [Example 1, 2-(((1R,2S)-2-aminocyclohexyl)amino)-4-(m-tolylamino)-7,8-dihydropyrido[4,3-d]pyrimidin-5(6H)-one], the IC50 is no more than 100 nM.

Regarding `N[C@H]1CCCC[C@H]1Nc1nc2c(c(Nc3cccc(-n4nccn4)c3)n1)C(=O)NCC2` [Example 6, 4-((3-(2H-1,2,3-triazol-2-yl)phenyl)amino)-2-(((1R,2S)-2-aminocyclohexyl)amino)-7,8-dihydropyrido[4,3-d]pyrimidin-5(6H)-one], the IC50 is no more than 100 nM.
